# Earlier results as cited in article PMC7645643 (Engineering in Life Sciences, 2020).
substance,measurement,value
Enfuvirtide [T-20],in vivo half-life,approximately 4 h
